Results on 17 compounds are retold here after paper PMC12527977, “Discovery of a novel tetrapeptide as glucose homeostasis modulator with bifunctionalities of targeting DPP‐IV and microbiota” (iMeta, 2025).

For one experiment, the target named is DPP-IV (Homo sapiens, UniProt P27487). The experiment is described as follows: DPP-IV inhibitory activity of peptides (DPP-IV-Glo Protease Assay Kit). The format is biochemical. Also noted: purchased QiZheng Biotech (Shanghai, China) IBDPP0901. The settings on record: for DPP-IV inhibitory activity: DPP-IV-Glo Protease Assay Kit, control = 0, in % (unit assumed).

Another experiment deals with dipeptidyl peptidase IV (UniProt P27487).

Like-named read-outs stand apart in the source and are kept apart here. Where a SMILES comes first, the peptide text is derived from it. Where no end group is shown, it is not given here.

Chain of DPP-IV (P27487 whole entry): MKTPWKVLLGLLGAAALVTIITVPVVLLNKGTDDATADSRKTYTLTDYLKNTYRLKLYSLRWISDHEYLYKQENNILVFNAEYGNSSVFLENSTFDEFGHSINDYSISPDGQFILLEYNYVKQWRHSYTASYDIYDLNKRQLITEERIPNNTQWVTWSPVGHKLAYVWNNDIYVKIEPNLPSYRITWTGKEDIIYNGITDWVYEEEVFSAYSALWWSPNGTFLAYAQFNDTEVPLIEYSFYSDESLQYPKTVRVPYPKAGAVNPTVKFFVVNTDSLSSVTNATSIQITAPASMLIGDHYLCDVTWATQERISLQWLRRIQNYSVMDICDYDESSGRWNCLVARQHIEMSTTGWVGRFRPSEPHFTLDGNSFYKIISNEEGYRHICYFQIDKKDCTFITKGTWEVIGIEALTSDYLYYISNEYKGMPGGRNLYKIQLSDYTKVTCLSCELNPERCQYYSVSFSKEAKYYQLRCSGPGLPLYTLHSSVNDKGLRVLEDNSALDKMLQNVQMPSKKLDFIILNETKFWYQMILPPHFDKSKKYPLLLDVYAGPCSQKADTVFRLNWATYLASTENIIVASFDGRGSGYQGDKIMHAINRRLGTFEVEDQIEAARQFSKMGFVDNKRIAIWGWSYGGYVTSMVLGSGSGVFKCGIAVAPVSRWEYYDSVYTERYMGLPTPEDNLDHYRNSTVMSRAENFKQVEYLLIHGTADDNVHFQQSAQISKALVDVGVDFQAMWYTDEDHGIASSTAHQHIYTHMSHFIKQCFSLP
Chain of dipeptidyl peptidase IV (P27487 41-765): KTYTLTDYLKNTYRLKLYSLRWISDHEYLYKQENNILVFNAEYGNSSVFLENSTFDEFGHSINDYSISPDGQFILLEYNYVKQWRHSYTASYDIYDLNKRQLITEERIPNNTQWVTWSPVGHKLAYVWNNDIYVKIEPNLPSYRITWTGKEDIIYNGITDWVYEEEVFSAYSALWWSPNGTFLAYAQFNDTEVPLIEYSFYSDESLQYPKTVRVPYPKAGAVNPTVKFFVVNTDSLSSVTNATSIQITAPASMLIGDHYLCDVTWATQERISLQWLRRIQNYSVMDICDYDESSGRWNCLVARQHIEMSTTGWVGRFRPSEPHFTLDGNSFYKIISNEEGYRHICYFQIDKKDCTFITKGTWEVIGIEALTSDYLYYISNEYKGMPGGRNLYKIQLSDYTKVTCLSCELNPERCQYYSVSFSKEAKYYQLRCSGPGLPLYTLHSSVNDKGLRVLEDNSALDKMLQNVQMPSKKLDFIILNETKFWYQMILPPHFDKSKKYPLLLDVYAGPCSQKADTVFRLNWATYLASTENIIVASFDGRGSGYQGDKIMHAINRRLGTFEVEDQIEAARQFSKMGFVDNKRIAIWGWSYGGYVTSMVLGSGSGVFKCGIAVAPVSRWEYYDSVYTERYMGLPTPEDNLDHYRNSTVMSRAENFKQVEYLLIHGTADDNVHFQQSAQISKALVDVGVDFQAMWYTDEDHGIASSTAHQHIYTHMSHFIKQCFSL

Broadly, the IC50 is the concentration that gives 50% inhibition. For the compound `CC(C)C[C@H](NC(=O)[C@@H](N)Cc1ccccc1)C(=O)N[C@@H](CCC(N)=O)C(=O)O` [FLQ] (H-Phe-Leu-Gln-OH), the DPP-IV inhibitory activity at DPP-IV (replicate 1, sheet S2F) is 25.2277; on DPP-IV (replicate 2, sheet S2F), 32.7776; on DPP-IV (replicate 3, sheet S2F), 32.9911. Moreover, the IC50 on DPP-IV (Table S3, read-out: IC50) turned out to be 4.13 mM.
As for `CC(C)C[C@H](NC(=O)[C@H](CCC(N)=O)NC(=O)[C@@H](N)Cc1ccccc1)C(=O)O` [FQL] (H-Phe-Gln-Leu-OH), the DPP-IV inhibitory activity on DPP-IV (replicate 1, sheet S2F) is 25.4694; at DPP-IV (replicate 2, sheet S2F), 22.9016; on DPP-IV (replicate 3, sheet S2F), 15.9024. For the same compound, the IC50 at DPP-IV (Table S3, read-out: IC50) came out at 0.97 mM.
For the compound `CC(C)C[C@H](N)C(=O)N[C@@H](CC(N)=O)C(=O)N[C@@H](C)C(=O)N1CCC[C@H]1C(=O)O` [LNAP] (H-LNAP-OH), the DPP-IV inhibitory activity was 13.9411 on DPP-IV (replicate 1, sheet S2F); 16.0533 at DPP-IV (replicate 2, sheet S2F); 12.0865 at DPP-IV (replicate 3, sheet S2F). The IC50 on DPP-IV (Table S3, read-out: IC50) stood at 0.59 mM.
Take `N[C@@H](Cc1c[nH]c2ccccc12)C(=O)N[C@@H](CC(=O)O)C(=O)N[C@@H](CO)C(=O)N[C@@H](Cc1ccc(O)cc1)C(=O)O` [WDSY] (H-WDSY-OH): the DPP-IV inhibitory activity at DPP-IV (replicate 1, sheet S2F) turned out to be 82.2499; on DPP-IV (replicate 2, sheet S2F), 85.4257; at DPP-IV (replicate 3, sheet S2F), 81.38. For the same compound, the IC50 at DPP-IV (Table S3, read-out: IC50) was determined as 0.63 mM.
As to `CC(C)C[C@H](NC(=O)[C@@H](N)Cc1c[nH]c2ccccc12)C(=O)N[C@@H](CCC(=O)O)C(=O)O` [WLE] (H-Trp-Leu-Glu-OH), the DPP-IV inhibitory activity on DPP-IV (replicate 1, sheet S2F) is listed as 21.3239; at DPP-IV (replicate 2, sheet S2F), 16.4075; on DPP-IV (replicate 3, sheet S2F), 17.3019. Besides, the half-maximal inhibitory concentration (IC50) at DPP-IV (Table S3, read-out: IC50) turned out to be 2.4 mM.
With `CC(C)C[C@H](NC(=O)[C@H](CC(N)=O)NC(=O)[C@@H](N)Cc1ccc(O)cc1)C(=O)O` [YNL] (H-Tyr-Asn-Leu-OH), the DPP-IV inhibitory activity on DPP-IV (replicate 1, […]) is on record as 24.2295; on DPP-IV (replicate 2, […]) it was 23.675; on DPP-IV (replicate 3, […]) it was 21.7871. Also, the IC50 at DPP-IV (Table S3, read-out: IC50) came to 0.14 mM.
As to `CC(C)C[C@H](NC(=O)[C@H](CCC(N)=O)NC(=O)[C@@H](N)Cc1ccc(O)cc1)C(=O)O` [YQL] (H-Tyr-Gln-Leu-OH), the DPP-IV inhibitory activity worked out at 20.7988 on DPP-IV (replicate 1, […]); 21.5571 on DPP-IV (replicate 2, […]); 29.5286 on DPP-IV (replicate 3, […]). At DPP-IV (Table S3, read-out: IC50), the half-maximal inhibitory concentration (IC50) was found to be 0.28 mM.
Compound FDGEL [FDGEL] showed an IC50 at DPP-IV of 45.1 mM. The DPP-IV inhibitory activity on DPP-IV (replicate 1, […]) came to 28.637; at DPP-IV (replicate 2, […]), 26.7775; on DPP-IV (replicate 3, […]), 19.1292.
In the case of FLQ (peptide), the IC50 of inhibition of DPP-IV activity in vitro in the experiment with dipeptidyl peptidase IV was found to be 4.13 mM.
FNPRG [FNPRG]: on DPP-IV, 40.5 mM corresponded to half-maximal inhibition (IC50). For the same compound, the DPP-IV inhibitory activity at DPP-IV (replicate 1, […]) amounted to 47.4625; on DPP-IV (replicate 2, […]), 43.5702; on DPP-IV (replicate 3, […]), 43.4293.
The matching figures for FNVDSE [FNVDSE]: 84 mM, 14.7737, 13.6123 and 13.4568.
FQL (peptide) had an IC50 of inhibition of DPP-IV activity in vitro in the experiment with dipeptidyl peptidase IV of 0.97 mM.
On the same count and under the same terms, under LLY (peptide) stands 0.83 mM.
Regarding PQNHA [PQNHA], the IC50 at DPP-IV stood at 24.6 mM. In addition, the DPP-IV inhibitory activity is listed as 27.665 on DPP-IV (replicate 1, […]); 17.6559 on DPP-IV (replicate 2, […]); 16.9893 at DPP-IV (replicate 3, […]).
Compound VFTPQ [VFTPQ] had an IC50 on DPP-IV of 18.5 mM. Further, the DPP-IV inhibitory activity turned out to be 17.5527 at DPP-IV (replicate 1, […]); 15.1374 on DPP-IV (replicate 2, […]); 15.1911 at DPP-IV (replicate 3, […]).
The corresponding values for WIAVK [WIAVK] are 0.6 mM, 55.8181, 53.6066 and 51.0205.
On to YTPHW [YTPHW], for which the DPP-IV inhibitory activity at DPP-IV (replicate 1, […]) is reported as 18.6094; at DPP-IV (replicate 2, […]) it was 9.79; at DPP-IV (replicate 3, […]) it was 21.0526. Also, at DPP-IV (Table S3, read-out: IC50), the half-inhibitory concentration (IC50) is 7.11 mM.
